Data taken from ChEMBL document CHEMBL5505992, “Novel membrane-targeting isoxanthohumol-amine conjugates for combating methicillin-resistant Staphylococcus aureus (MRSA) infections” (Eur J Med Chem, 2024).
≈ marks a conversion by molar mass, not a printed value.

Experiments:
[1] = system: Staphylococcus aureus; assay: Antibacterial activity against Staphylococcus aureus ATCC 29213 measured after 16 to 18 hrs by CLSI method; type: functional; settings: time 16-18 hrs
[2] = system: Staphylococcus aureus; assay: Antibacterial activity against methicillin-resistant Staphylococcus aureus clinical isolate MRSA-11 measured after 16 to 18 hrs by CLSI method; type: functional; settings: time 16-18 hrs
[3] = system: Staphylococcus aureus; assay: Antibacterial activity against methicillin-resistant Staphylococcus aureus clinical isolate MRSA-13 measured after 16 to 18 hrs by CLSI method; type: functional; settings: time 16-18 hrs
[4] = system: Staphylococcus aureus; assay: Antibacterial activity against methicillin-resistant Staphylococcus aureus clinical isolate MRSA-14 measured after 16 to 18 hrs by CLSI method; type: functional; settings: time 16-18 hrs
[5] = system: Staphylococcus aureus; assay: Antibacterial activity against methicillin-resistant Staphylococcus aureus clinical isolate MRSA-16 measured after 16 to 18 hrs by CLSI method; type: functional; settings: time 16-18 hrs
[6] = system: Staphylococcus aureus; assay: Antibacterial activity against methicillin-resistant Staphylococcus aureus clinical isolate MRSA-17 measured after 16 to 18 hrs by CLSI method; type: functional; settings: time 16-18 hrs
[7] = system: Staphylococcus aureus; assay: Antibacterial activity against methicillin-resistant Staphylococcus aureus clinical isolate MRSA-18 measured after 16 to 18 hrs by CLSI method; type: functional; settings: time 16-18 hrs
[8] = system: Staphylococcus aureus; assay: Antibacterial activity against methicillin-resistant Staphylococcus aureus clinical isolate MRSA-20 measured after 16 to 18 hrs by CLSI method; type: functional; settings: time 16-18 hrs
[9] = system: Staphylococcus aureus; assay: Antibacterial activity against methicillin-resistant Staphylococcus aureus clinical isolate MRSA-21 measured after 16 to 18 hrs by CLSI method; type: functional; settings: time 16-18 hrs
[10] = system: Staphylococcus aureus; assay: Antibacterial activity against methicillin-resistant Staphylococcus aureus clinical isolate MRSA-22 measured after 16 to 18 hrs by CLSI method; type: functional; settings: time 16-18 hrs
[11] = system: Staphylococcus aureus; assay: Antibacterial activity against methicillin-resistant Staphylococcus aureus clinical isolate MRSA-23 measured after 16 to 18 hrs by CLSI method; type: functional; settings: time 16-18 hrs
[12] = system: Escherichia coli; assay: Antibacterial activity against Escherichia coli ATCC25922 measured after 16 to 18 hrs by CLSI method; type: functional; settings: time 16-18 hrs
[13] = Hemolytic activity in sheep erythrocytes incubated for 1 hr by absorbance based analysis; type: toxicity, cell-based, Ovis aries, Erythrocyte
[14] = Selectivity index, ratio of HC50 for hemolytic activity in sheep erythrocytes to MIC for antibacterial activity against Staphylococcus aureus ATCC 29213; type: toxicity, cell-based; settings: read-out: Selectivity Index

Structure (SMILES): COc1cc(OCCCCN2CCCC(C)C2)c(CC=C(C)C)c2c1C(=O)CC(c1ccc(OCCCCN3CCCC(C)C3)cc1)O2 (centres undefined)
- MIC [1]: 16 µg/mL (≈ 24.2 µM)
- MIC [2]: 8 µg/mL (≈ 12.1 µM)
- MIC [3]: 8 µg/mL (≈ 12.1 µM)
- MIC [4]: 8 µg/mL (≈ 12.1 µM)
- MIC [5]: 8 µg/mL (≈ 12.1 µM)
- MIC [6]: 8 µg/mL (≈ 12.1 µM)
- MIC [7]: 16 µg/mL (≈ 24.2 µM)
- MIC [8]: 8 µg/mL (≈ 12.1 µM)
- MIC [9]: 16 µg/mL (≈ 24.2 µM)
- MIC [10]: 8 µg/mL (≈ 12.1 µM)
- MIC [11]: 16 µg/mL (≈ 24.2 µM)
- MIC [12]: > 128 µg/mL
- HC50 at 1 h [13]: 120 µg/mL
- selectivity ratio [14]: > 7.5

Structure (SMILES): CCCCN(CCCC)CCCCOc1ccc(C2CC(=O)c3c(OC)cc(OCCCCN(CCCC)CCCC)c(CC=C(C)C)c3O2)cc1 (centres undefined)
- MIC [1]: 4 µg/mL (≈ 5.55 µM)
- MIC [2]: 8 µg/mL (≈ 11.1 µM)
- MIC [3]: 8 µg/mL (≈ 11.1 µM)
- MIC [4]: 4 µg/mL (≈ 5.55 µM)
- MIC [5]: 4 µg/mL (≈ 5.55 µM)
- MIC [6]: 4 µg/mL (≈ 5.55 µM)
- MIC [7]: 8 µg/mL (≈ 11.1 µM)
- MIC [8]: 4 µg/mL (≈ 5.55 µM)
- MIC [9]: 8 µg/mL (≈ 11.1 µM)
- MIC [10]: 8 µg/mL (≈ 11.1 µM)
- MIC [11]: 8 µg/mL (≈ 11.1 µM)
- MIC [12]: > 128 µg/mL
- HC50 at 1 h [13]: 1200 µg/mL
- selectivity ratio [14]: 300

Structure (SMILES): COc1cc(OCCCN(CC(C)C)CC(C)C)c(CC=C(C)C)c2c1C(=O)CC(c1ccc(OCCCN(CC(C)C)CC(C)C)cc1)O2 (centres undefined)
- MIC [1]: > 128 µg/mL
- MIC [2]: 64 µg/mL (≈ 92.3 µM)
- MIC [3]: > 128 µg/mL
- MIC [4]: 64 µg/mL (≈ 92.3 µM)
- MIC [5]: > 128 µg/mL
- MIC [6]: > 128 µg/mL
- MIC [7]: > 128 µg/mL
- MIC [8]: > 128 µg/mL
- MIC [9]: 32 µg/mL (≈ 46.2 µM)
- MIC [10]: 32 µg/mL (≈ 46.2 µM)
- MIC [11]: 32 µg/mL (≈ 46.2 µM)
- MIC [12]: > 128 µg/mL
- HC50 at 1 h [13]: > 1280 µg/mL

Structure (SMILES): COc1cc(OCCCCN2CCN(C)CC2)c(CC=C(C)C)c2c1C(=O)CC(c1ccc(OCCCCN3CCN(C)CC3)cc1)O2 (centres undefined)
- MIC [1]: 32 µg/mL (≈ 48.3 µM)
- MIC [2]: 32 µg/mL (≈ 48.3 µM)
- MIC [3]: 32 µg/mL (≈ 48.3 µM)
- MIC [4]: 32 µg/mL (≈ 48.3 µM)
- MIC [5]: 32 µg/mL (≈ 48.3 µM)
- MIC [6]: 16 µg/mL (≈ 24.1 µM)
- MIC [7]: 32 µg/mL (≈ 48.3 µM)
- MIC [8]: 32 µg/mL (≈ 48.3 µM)
- MIC [9]: 32 µg/mL (≈ 48.3 µM)
- MIC [10]: 32 µg/mL (≈ 48.3 µM)
- MIC [11]: 32 µg/mL (≈ 48.3 µM)
- MIC [12]: > 128 µg/mL
- HC50 at 1 h [13]: > 1280 µg/mL
- selectivity ratio [14]: > 40

Structure (SMILES): COc1cc(OCCCN2CCCC(C)C2)c(CC=C(C)C)c2c1C(=O)CC(c1ccc(OCCCN3CCCC(C)C3)cc1)O2 (centres undefined)
- MIC [1]: 16 µg/mL (≈ 25.3 µM)
- MIC [2]: 32 µg/mL (≈ 50.6 µM)
- MIC [3]: 16 µg/mL (≈ 25.3 µM)
- MIC [4]: 16 µg/mL (≈ 25.3 µM)
- MIC [5]: 16 µg/mL (≈ 25.3 µM)
- MIC [6]: 8 µg/mL (≈ 12.6 µM)
- MIC [7]: 16 µg/mL (≈ 25.3 µM)
- MIC [8]: 16 µg/mL (≈ 25.3 µM)
- MIC [9]: 32 µg/mL (≈ 50.6 µM)
- MIC [10]: 16 µg/mL (≈ 25.3 µM)
- MIC [11]: 32 µg/mL (≈ 50.6 µM)
- MIC [12]: > 128 µg/mL
- HC50 at 1 h [13]: > 1280 µg/mL
- selectivity ratio [14]: > 80
